Like-named read-outs stand apart in the source and are kept apart here. Each block holds one molecule with its values, some of them ahead of it.
Legend:
[1] = system: Calu-6 human lung tumour xenografts; assay: Calu-6 Human Lung Cancer Xenograft Model; assay type: in vivo; conditions: athymic mice, p.o. 24 days
Experimental: Experiments were conducted in female athymic mice (Swiss nu/nu genotype, ≧6 weeks of age). Calu-6 human lung tumour xenografts were established in mice by injecting 1×10^6 cells ([…] containing 50% Matrigel®) subcutaneously in the dorsal flank. Tumour volumes were assessed using bilateral Vernier calliper measurement at least twice weekly and calculated using the formula (length×width)×√(length×width)×(π/6), where length was taken to be the longest diameter across the tumour and width the corresponding perpendicular. Mice were randomised into 4 treatment groups (10 mice/group) when the mean tumour volume reached approximately 0.2 cm^3. […] (0.5% w/v Methocel/0.1% w/v Tween 80).
Tumour growth inhibition from the start of treatment was assessed by comparison of the differences in tumour volume between control and treated groups.

HUVEC = HUVEC assay, endothelial cell proliferation; assay type: cell-based; conditions: Homo sapiens
Calu-6 tumour xenograft = assay: in vivo solid tumour model of WO 00/47212, Calu-6 tumour xenograft; conditions: once-daily oral, 28 days
[2] = biological target: c-Kit (stem cell factor receptor tyrosine kinase) (Homo sapiens, UniProt P10721); assay: c-Kit inhibition; assay type: biochemical
Chain of c-Kit (stem cell factor receptor tyrosine kinase) (P10721 26-976): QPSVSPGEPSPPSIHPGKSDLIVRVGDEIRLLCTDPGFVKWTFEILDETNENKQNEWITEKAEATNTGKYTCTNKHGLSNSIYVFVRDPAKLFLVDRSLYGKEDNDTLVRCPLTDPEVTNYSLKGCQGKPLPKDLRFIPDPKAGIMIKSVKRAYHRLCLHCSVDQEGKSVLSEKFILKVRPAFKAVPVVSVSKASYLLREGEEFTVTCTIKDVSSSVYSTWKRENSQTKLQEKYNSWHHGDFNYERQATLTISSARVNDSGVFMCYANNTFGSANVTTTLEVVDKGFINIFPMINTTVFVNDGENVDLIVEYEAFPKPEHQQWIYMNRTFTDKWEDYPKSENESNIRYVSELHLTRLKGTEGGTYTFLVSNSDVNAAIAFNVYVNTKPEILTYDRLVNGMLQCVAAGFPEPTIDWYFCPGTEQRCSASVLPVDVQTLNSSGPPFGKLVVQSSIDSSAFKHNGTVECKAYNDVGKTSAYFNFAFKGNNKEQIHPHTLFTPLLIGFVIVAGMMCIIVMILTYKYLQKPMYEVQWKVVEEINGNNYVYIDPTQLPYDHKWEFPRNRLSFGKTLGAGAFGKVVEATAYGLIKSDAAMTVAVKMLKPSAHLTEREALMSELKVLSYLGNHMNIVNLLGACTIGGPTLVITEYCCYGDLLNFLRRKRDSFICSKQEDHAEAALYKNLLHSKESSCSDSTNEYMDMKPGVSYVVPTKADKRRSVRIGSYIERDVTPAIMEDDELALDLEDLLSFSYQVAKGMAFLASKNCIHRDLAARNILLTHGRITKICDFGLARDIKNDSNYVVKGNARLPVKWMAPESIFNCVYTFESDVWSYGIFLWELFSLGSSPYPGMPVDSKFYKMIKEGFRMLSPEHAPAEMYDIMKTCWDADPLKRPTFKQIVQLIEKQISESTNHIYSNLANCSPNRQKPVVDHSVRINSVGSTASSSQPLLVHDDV

- inhibition of c-Kit [2]: inhibits
Structure (SMILES): COc1cc2c(Oc3ccc4[nH]c(C)cc4c3F)ncnc2cc1OCCCN1CCCC1 [AZD2171, 4-(4-fluoro-2-methyl-1H-indol-5-yloxy)-6-methoxy-7-(3-(pyrrolidin-1-yl)propoxy)quinazoline]
- tumour growth inhibition ([1]; AZD2171 1.5 mg/kg once daily alone): 47%
- IC50 (HUVEC; VEGF-stimulated, read-out: IC50, VEGF-stimulated endothelial cell proliferation): 0.4 ± 0.2 nM
- IC50 (HUVEC; basal (no VEGF stimulation), read-out: IC50, basal endothelial cell proliferation): > 500 nM
- inhibition of growth of Calu-6 tumour xenograft (Calu-6 tumour xenograft; 1.5 mg/kg/day, P<0.01): 49%
- inhibition of growth of Calu-6 tumour xenograft (Calu-6 tumour xenograft; 3 mg/kg/day, P<0.0001): 69%
- inhibition of growth of Calu-6 tumour xenograft (Calu-6 tumour xenograft; 6 mg/kg/day, P<0.0001): 91%

Structure (SMILES): Cn1cnc2c(F)c(Nc3ccc(Br)cc3Cl)c(C(=O)NOCCO)cc21 [AZD6244, 6-(4-Bromo-2-chloro-phenylamino)-7-fluoro-3-methyl-3H-benzoimidazole-5-carboxylic acid (2-hydroxy-ethoxy)-amide]
- tumour growth inhibition ([1]; AZD6244 3 mg/kg twice daily alone): 44%

— US20100130519A1 (priority 2007, published 2010)
